Literature values, collected in patent US7122568B1, “Use of low-dose PDT to inhibit restenosis” (QLT, Inc., priority 1999, dated 2006).
Like-named read-outs stand apart in the source and are kept apart here.

What was measured:
porcine model = conditions: 0.3 mg/kg injected four hours prior to endothelial denudation; external irradiation 20 J/cm2 of 652 nm
[1] = system: normal rabbit carotid arteries; conditions: systemic administration 7 days after denudation, external irradiation two days later; five weeks after PDT
[2] = system: rabbit arteries injured by endothelial denudation; conditions: systemic administration after injury, 120 or 240 J/cm2 irradiation 24 hours later
[3] = system: normal rat carotid arteries; conditions: systemic administration, external irradiation; PDT on days 2 and 7 after denudation, read on day 14

## Oc1cccc(-c2c3nc(c(-c4cccc(O)c4)c4ccc([nH]4)c(-c4cccc(O)c4)c4nc(c(-c5cccc(O)c5)c5ccc2[nH]5)CC4)C=C3)c1 [m-THPC, metatetrahydroxyphenyl-chlorin]
Porcine model
  effect on intimal area: significant increase of intimal area

## Photofrin™
[1]
  effect on induced IH response (ratio of IH area to normalized area enclosed by the IEL): effective in reducing the induced IH response
[2]
  effect on IH: prevention of IH

## benzoporphyrin derivative monoacid ring A [BPD-MA]
Rat carotid artery; 0.5 μg/ml local delivery, 50 and 100 J/cm2 of 690 nm (Stages I and II)
  effect on IH: little effect on reducing IH
Rat carotid artery; 0.5 μg/ml local delivery, 100 J/cm2 of 690 nm (Stage II)
  effect on IH: induction of significant IH
Rat carotid artery; 25 μg/ml local delivery, 50 J/cm2 of 690 nm (Stage III)
  effect on IH: inhibit IH
Rat carotid artery; 25 μg/ml local delivery, 100 J/cm2 of 690 nm (Stage IV)
  photothrombosis: induce photothrombosis

## chloraluminum-sulfonated phthalocyanine [CASPc]
[3]
  effect on induced IH response: effective in inhibiting the induced IH response
